Assay results as given in patent publication US20230372253A1, “NOVEL LIPID-BASED SMALL MOLECULE INTEGRIN RECEPTOR-LIGAND AGONIST ADJUVANTS CARRIER COMPOSITIONS, INTEGRIN AGONIST ADJUVANT PHARMACEUTICAL COMPOSITIONS THEREFROM, AND METHODS FOR MAKING AND USING SAME” (7 Hills Pharma LLC, priority 2022, published 2023).
Read-outs that look alike come from different tables or passages of the source. Each block holds one molecule with its values, some of them ahead of it.

Legend:
LogP = type: physicochemical
From the text: The term “Log P” means the ratio of the concentrations of a substance in two heterogenous phases in equilibrium with each other. Typically, the organic solvent in n-octanol, but n-hexane; toluene; chlorobenzene; dichloromethane; methyl tert-butyl ether; isopropyl acetate; benzyl alcohol; cyclohexanol; or n-butanol may be used as well.

CYP3A4 = CYP3A4 (Homo sapiens, UniProt P08684); assay: Cytochrome P450 Metabolism; type: in vitro ADME
Solubility of 7HP349 = type: physicochemical
CYP2C19 = CYP2C19 (Homo sapiens, UniProt P33261); assay: Cytochrome P450 Metabolism; type: in vitro ADME
Human SAD PK = type: in vivo; conditions: plasma, oral; for AUC(0-t): human; for AUC(0-t) / Cmax / half-life: mean ± SD; for Cmax / half-life / Tmax: n = 6; for Tmax: median
Procedure: Preferred lipid-based formulation based on U28 provided adequate exposure in human. The optimal PK exposure to engage integrins and improve adjuvant activity is systemic plasma exposure of AUC0-t between about 50 ng/mL/hr and about 100 ng/mL/hr.

Chain of CYP3A4 (P08684 whole entry): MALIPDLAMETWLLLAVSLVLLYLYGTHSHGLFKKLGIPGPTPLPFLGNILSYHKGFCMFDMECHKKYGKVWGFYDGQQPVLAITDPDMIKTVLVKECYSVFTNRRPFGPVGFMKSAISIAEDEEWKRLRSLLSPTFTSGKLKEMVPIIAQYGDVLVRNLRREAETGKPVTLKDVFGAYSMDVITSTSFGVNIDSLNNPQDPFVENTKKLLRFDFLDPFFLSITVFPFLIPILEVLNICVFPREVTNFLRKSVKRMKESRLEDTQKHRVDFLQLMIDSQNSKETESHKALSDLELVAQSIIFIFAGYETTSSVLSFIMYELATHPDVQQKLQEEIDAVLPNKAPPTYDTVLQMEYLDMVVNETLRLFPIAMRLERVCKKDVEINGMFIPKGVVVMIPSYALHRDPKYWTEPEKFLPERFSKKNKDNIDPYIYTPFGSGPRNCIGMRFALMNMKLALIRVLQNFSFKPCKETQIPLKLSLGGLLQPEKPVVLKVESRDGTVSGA
Chain of CYP2C19 (P33261 whole entry): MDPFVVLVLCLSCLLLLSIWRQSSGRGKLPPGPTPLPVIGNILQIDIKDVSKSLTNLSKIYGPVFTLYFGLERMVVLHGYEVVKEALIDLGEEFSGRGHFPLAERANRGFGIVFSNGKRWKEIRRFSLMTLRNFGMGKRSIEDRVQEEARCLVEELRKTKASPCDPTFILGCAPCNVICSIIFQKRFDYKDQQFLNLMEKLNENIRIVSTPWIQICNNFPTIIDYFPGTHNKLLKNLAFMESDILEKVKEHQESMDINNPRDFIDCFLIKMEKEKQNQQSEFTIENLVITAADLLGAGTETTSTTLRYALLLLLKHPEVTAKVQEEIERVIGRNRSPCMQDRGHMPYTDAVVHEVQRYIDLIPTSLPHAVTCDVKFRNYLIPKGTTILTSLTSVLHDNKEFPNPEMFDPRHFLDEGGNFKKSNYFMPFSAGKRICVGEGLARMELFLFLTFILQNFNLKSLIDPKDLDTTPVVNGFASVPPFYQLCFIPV

logP (LogP): 6.58
Structure (SMILES): O=C(OCCOCCOC(=O)N(Cc1cccs1)Cc1cccs1)N(Cc1cccs1)Cc1cccs1 [Form 7HP577, 3-oxo-1-(2-thienyl)-2-(2-thienylmethyl)-4,7-dioxa-2-azanonan-9-yl bis(2-thienylmethyl)carbamate]

Cytochrome P450 Metabolism (CYP3A4): Substrate for CYP3A4 and CYP2C19 | Solubility (Solubility of 7HP349; aqueous buffers and simulated gastrointestinal fluids, aqueous buffer, hydrochloric acid-potassium chloride buffer (pH 2), citrate buffer (pH 4), sodium phosphate buffer (pH 7.4), SGF, FaSSIF and FeSSIF, read-out: Solubility): < 0.01 µM | Solubility (Solubility of 7HP349; in water): Insoluble in water | Solubility (Solubility of 7HP349; oil or lipid, vegetable oils such as corn, soybean, canola oils typically containing >C16 fatty acids, read-out: Solubility): ≤ 50 mg/mL | Cytochrome P450 Metabolism (CYP2C19): Substrate for CYP3A4 and CYP2C19 | AUC(0-t) (Human SAD PK; 50 mg, cohort 1, 50 mg, n = 6, read-out: AUC0-10 h): 12.5 ng·h/mL | AUC(0-t) (Human SAD PK; 50 mg, cohort 1, 50 mg, n = 6, read-out: AUClast): 31.8 ± 21.5 ng·h/mL | AUC(0-t) (Human SAD PK; 100 mg, cohort 2, 100 mg, n = 6, read-out: AUC0-10 h): 115 ± 57.5 ng·h/mL | AUC(0-t) (Human SAD PK; 100 mg, cohort 2, 100 mg, n = 6, read-out: AUClast): 165 ng·h/mL | AUC(0-t) (Human SAD PK; 200 mg, cohort 3, 200 mg, n = 6, read-out: AUC0-10 h): 571 ± 195 ng·h/mL | AUC(0-t) (Human SAD PK; 200 mg, cohort 3, 200 mg, n = 6, read-out: AUClast): 755 ± 241 ng·h/mL | AUC(0-t) (Human SAD PK; 300 mg, cohort 4, 300 mg, n = 6, read-out: AUC0-10 h): 938 ± 282 ng·h/mL | AUC(0-t) (Human SAD PK; 300 mg, cohort 4, 300 mg, n = 6, read-out: AUClast): 1350 ± 316 ng·h/mL | Cmax (Human SAD PK; cohort 1, 50 mg): 10.2 ± 8.17 ng/mL | half-life (Human SAD PK; cohort 1, 50 mg): 8.9 h | Tmax (Human SAD PK; cohort 1, 50 mg): 2.5 h | Cmax (Human SAD PK; cohort 2, 100 mg): 36.1 ± 16.4 ng/mL | half-life (Human SAD PK; cohort 2, 100 mg): 20.6 ± 15 h | Tmax (Human SAD PK; cohort 2, 100 mg): 2 h | Cmax (Human SAD PK; cohort 3, 200 mg): 166 ± 61.8 ng/mL | half-life (Human SAD PK; cohort 3, 200 mg): 34.6 ± 20.7 h | Tmax (Human SAD PK; cohort 3, 200 mg): 2 h | Cmax (Human SAD PK; cohort 4, 300 mg): 321 ng/mL | half-life (Human SAD PK; cohort 4, 300 mg): 29.7 ± 15.4 h | Tmax (Human SAD PK; cohort 4, 300 mg): 2 h | logP (LogP): 6.22
Structure (SMILES): O=C(OCCOCCOCCOC(=O)N(Cc1cccs1)Cc1cccs1)N(Cc1cccs1)Cc1cccs1 [Form 7HP349, 3-oxo-1-(2-thienyl)-2-(2-thienylmethyl)-4,7,10-trioxa-2-azadodecan-12-yl bis(2-thienylmethyl)carbamate]
Solubility (Solubility of 7HP349; common organic solvents such as methanol, ethanol, ethyl acetate, acetone, DMSO, DMF, DCM, etc.): Highly soluble in common organic solvents such | Solubility (Solubility of 7HP349; non-polar organic solvents such as hexane, heptane, etc.): Practically insoluble in non-polar organic solvents
